In US4238620A, “Dibenz[b,f]oxepin and dibenzo[b,f]thiepin derivatives, process for preparation thereof, method of using the same, and compositions thereof” (priority 1978, dated 1980):
Entries after “also recorded” stand apart in the source; their conditions may differ.

Columns and labels:
[1] = Overall comparison of anti-inflammatory, analgesic and antipyretic activities (Tests 1 to 3); assay type: in vivo, rats; guinea-pigs; conditions: for anti-inflammatory, analgesic and antipyretic activities compared with indomethacin: vs indomethacin (compound 3)
Excerpt: (§1) From these diagrams, the correlation between the pharmacological activity of each compound and its ulcerogenicity and toxicity, i.e. the safety margin of each compound, can be clearly seen. In these Figures, the lines and letters have the following meanings:
(§2) The following conclusions can be drawn from Tables I to III and FIGS. 1 and 2. In the following description, the therapeutic index means LD50 /ED50 (or MED), and the safety index means UD50 /ED50 (or MED). The safety margin of a given compound is broader when it has larger therapeutic and or safety indices.

in vivo [2] = conditions: rat, po, rats, once daily for 5 days, mortality on 6th day, read-out: LD50 Repeated
Description: (§3) (b) Repeated administrations in rats
(§4) Test compounds were orally administered once daily for 5 days, and LD50 -value was calculated from the mortality on the 6th day.

[3] = system: Ultraviolet-induced erythema in guinea-pigs; assay: Ultraviolet-induced erythema in guinea-pigs (UVE method), acute inflammation; assay type: in vivo; conditions: Cavia porcellus, po, read-out: Anti-inflammatory activity ED50, acute inflammation, UVE
Description: (§5) (1) Effect on acute inflammation:
(b) Ultraviolet-induced erythema in guinea-pigs (UVE method)
The test was carried out according to the method described in Arch. Int. Pharmacodyn. Ther., 116, 261 (1958).

[4] = assay type: in vivo; conditions: for therapeutic index compared with indomethacin: vs indomethacin
Excerpt: In the following description, the therapeutic index means LD50 /ED50 (or MED), and the safety index means UD50 /ED50 (or MED).

[5] = system: Gastrointestinal ulcer formation in fed rats; assay: Gastrointestinal ulcer formation in fed rats (ulcerogenicity); assay type: in vivo
Description: (§6) TEST 4. ULCEROGENICITY IN GASTROINTESTINAL TRACT
(§7) Gastrointestinal ulcer formation in fed rats
(§8) The test was carried out according to the method described in Science, 170, 183 (1970).

[6] = as above; assay type: in vivo; conditions: rat, in vivo, po, fed rats; read-out: UD50 (50% ulcer forming dose)
Description: as §6, §7, §8

[7] = system: AgNO3-induced joint pain in rats; assay: AgNO3-induced joint pain in rats (AGP method), analgesic activity; assay type: in vivo; conditions: Rattus norvegicus, po, read-out: Analgesic activity ED50, AGP
Description: (§9) TEST 2. ANALGESIC ACTIVITY
(a) AgNO3 -induced joint pain in rats (AGP method)
The test was carried out according to the method described in J. Pharmacol. Expt. Ther., 98, 19 (1950)

[8] = system: Felt pellet-induced granuloma formation in rats; assay: Felt pellet-induced granuloma formation in rats (FGF method), subacute and chronic inflammation; assay type: in vivo; conditions: Rattus norvegicus, po, read-out: Minimum Effective Dose, subacute and chronic inflammation, FGF*
Description: (§10) (2) Effect on subacute and chronic inflammations:
(b) Felt pellet-induced granuloma formation in rats (FGF method)
The test was carried out according to the method described in J. Amer. Pharm. Assoc., 46, 515 (1957) and Chem. Pharm. Bull., 23, 1446 (1975).

[9] = system: adjuvant-induced arthritis in rats; assay: Therapeutic activity on adjuvant-induced arthritis in rats (AAT method), subacute and chronic inflammation; assay type: in vivo; conditions: Rattus norvegicus, po, read-out: Minimum Effective Dose, subacute and chronic inflammation, AAT*
Description: as §10
(a) Therapeutic activity on adjuvant-induced arthritis in rats (AAT method)
The test was carried out according to the method described in Brit. J. Pharmacol., 21, 127 (1963) and Japan J. Pharmacol., 23, 58 (1973).

[10] = system: Acetic acid (AcOH)-induced writhing in rats; assay: Acetic acid (AcOH)-induced writhing in rats (ACW method), analgesic activity; assay type: in vivo; conditions: Rattus norvegicus, po, read-out: Analgesic activity ED50, ACW
Description: as §9
(b) Acetic acid (AcOH)-induced writhing in rats (ACW method)
The test was carried out according to the method described in Arzneim. Forsch., 25, 1505 (1975).

[11] = system: Carrageenin-induced hind paw oedema in rats; assay: Carrageenin-induced hind paw oedema in rats (CAR method), acute inflammation; assay type: in vivo; conditions: Rattus norvegicus, po, read-out: Anti-inflammatory activity ED50, acute inflammation, CAR
Description: as §5
(a) Carrageenin-induced hind paw oedema in rats (CAR method)
The test was carried out according to the method described in Proc. Soc. Exp. Biol. Med., 111, 544 (1962).

[12] = Safety index (UD50/ED50 or MED), separation of activity from ulcerogenicity; assay type: in vivo; conditions: for separation of anti-inflammatory, analgesic and antipyretic activities from ulcerogenicity: FIGS. 1 and 2, vs indomethacin
Excerpt: as §1, §2

rats = assay: Overall comparison of lethal toxicity (Test 5); assay type: in vivo; conditions: for toxicity compared with indomethacin (in words): vs indomethacin
Description: (a) Single administration in rats
as §3, §4

[13] = system: Yeast-induced fever in rats; assay: Yeast-induced fever in rats (YEF method), antipyretic activity; assay type: in vivo; conditions: Rattus norvegicus, po, read-out: Antipyretic activity ED50, YEF
Description: TEST 3. ANTIPYRETIC ACTIVITY
Yeast-induced fever in rats (YEF method)
The test was carried out according to the method described in Arzneim. Forsch., 13, 338 (1963).

in vivo [14] = conditions: rat, po, rats, single administration, 7th day, read-out: LD50 Single
[15] = cited from earlier work
[16] = cited from earlier work; remark: listed apart in the source

Row | Structure (SMILES) | anti-inflammatory, analgesic and antipyretic activities compared with indomethacin [1] | LD50 at 144 h (in vivo [2]) | ED50 [3] | therapeutic index compared with indomethacin [4] | TD50 [6] | ED50 [7] | minimal effective dose [8] | minimal effective dose [9] | ED50 [10] | ED50 [11] | separation of anti-inflammatory, analgesic and antipyretic activities from ulcerogenicity [12] | toxicity compared with indomethacin (in words) (rats) | ED50 [13] | other results
1 | Cc1ccc2c(c1)CC(=O)c1cc(C(C)C(=O)O)ccc1S2 (racemic) [compound C, dl-2-(8-Methyl-10,11-dihydro-11-oxodibenzo[b,f]thiepin-2-yl)propionic acid] | equivalent or superior to those of indomethacin | > 12 mg/kg | 0.85 mg/kg | far larger therapeutic indices than indomethacin | 2.76 mg/kg | 1.41 mg/kg | 1 mg/kg/day | < 0.2 mg/kg/day | 0.84 mg/kg | 2.08 mg/kg | more separated from ulcerogenicity in the gastrointestinal tract than in indomethacin; also recorded: Especially good separation | far weaker than those of indomethacin | 0.015 mg/kg | pharmacological activities compared with compound 2 ([1]; vs compound 2): comparable or slightly inferior to those of compound 2; average therapeutic index relative to compound 2 ([4]; LD50/ED50 (or MED), vs compound 2): more than 5 times; breadth of safety margin compared with compound 2 ([4]; safety margin, vs compound 2): far superior to compound 2; ulcerogenicity relative to compound 2 ([5]; fraction of that of compound 2): about 1/4; average safety index relative to compound 2 ([12]; UD50/ED50 (or MED), vs compound 2): about 4 times; toxicity relative to compound 2 (rats; fraction of that of compound 2): less than 1/6
2 | Cc1ccc2c(c1)CC(=O)c1cc(C(C)C(=O)OCCOCCO)ccc1O2 (racemic) [compound E, 2-(2-Hydroxyethoxy)ethyl dl-2-(8-methyl-10,11-dihydro-11-oxodibenz[b,f]oxepin-2-yl)propionate] | equivalent or superior to those of indomethacin | > 16 mg/kg | 1.41 mg/kg | far larger therapeutic indices than indomethacin | 4.04 mg/kg | 3.8 mg/kg | 2 mg/kg/day | 0.2 mg/kg/day | 0.27 mg/kg | 3.61 mg/kg | more separated from ulcerogenicity in the gastrointestinal tract than in indomethacin; also recorded: Especially good separation | far weaker than those of indomethacin | 0.055 mg/kg | pharmacological activities compared with compound 1 ([1]; vs compound 1): equivalent to, or more potent, than those of compound 1; pharmacological activities compared with compound A ([1]; vs compound A): somewhat inferior to those of compound A; average safety and therapeutic indices compared with compound A ([4]; safety and therapeutic indices, vs compound A): comparable to those of compound A; breadth of safety margin compared with compound 1 ([4]; safety margin, vs compound 1): better; ulcerogenicity and toxicity compared with compound A ([5]; ulcerogenicity together with toxicity, vs compound A): weaker than those of compound A; LD50 at 168 h (in vivo [14]): 219 mg/kg
3 | O=C(O)Cc1ccc2c(c1)CC(=O)c1ccccc1S2 [10,11-dihydro-10-oxodibenzo[b,f]thiepin-2-acetic acid] |  |  |  |  |  |  |  |  |  |  |  |  |  | anti-inflammatory activity relative to phenylbutazone [15]: 0.4 time; analgesic activity relative to aspirin [16]: equivalent to that of aspirin
